Broadly, the IC50 is the midpoint of a concentration-inhibition curve. Low values mean greater potency, high ones weaker potency.

Molecules are shown by their SMILES.

The assay relates to Molt-4 cells. Briefly: CellTiter-Glo Luminescent Cell Viability Assay (growth inhibition, 72 hour incubation). The class given is cell-based. To be noted: Homo sapiens, 72 hours treatment, CellTiter Glo luminescence. An excerpt: CellTiter-Glo Luminescent Cell Viability Assay Kit was obtained from Promega. RPMI 1640 was obtained from Invitrogen. Fetal Bovine Serum (FBS) was obtained from Corning. L-glutamine was obtained from Invitrogen. 100× Penicillin-Streptomycin was obtained from HyClone. 0.05% Trypsin-EDTA (T-E) was obtained from Invitrogen. DPBS was obtained from Corning. DMSO was obtained from Sigma. Black 384 well plates were obtained from Greiner. 96-well V bottom plates were obtained from Axygen. For cell seeding on Day “−1”, the density of Molt-4 cells was adjusted according to supplier-recommended information. 50 μL cells were seeded in four 384-well-plates, and 50 μL DPBS was added to the edge wells. On Day 0, test compounds were dissolved in DMSO and stored in a nitrogen cabinet. The stock concentration of the test compounds was 120 mM. The stock concentration of the reference compounds was 10 mM. Test compounds (125 nL in DMSO) were added to the wells and serially diluted by three fold, providing 10 doses in each series with a maximum concentration of 300 μM. Equal volumes of DMSO without test compound were transferred to control rows in the well plate. Using this procedure, the DMSO concentration across the well plate was 0.25% (v/v). On Day 3 (after the cells were treated with the compounds for 72 hours), the plates were equilibrated at room temperature for approximately 30 minutes. 25 μL of CellTiter Glo reagent was added to each well, and the luminescence in each well was measured after 10 min using an ENVISION fluorescence plate reader (PerkinElmer). The calculation formula used for data analysis was: Inhibition %=(Max−Sample Value)/Max*100. Curves were fitted by Prism with a Sigmoidal dose-response (variable slope) model and generated by 4 Parameter Logistic Model or Sigmoidal Dose-Response Model, Y=Bottom+(Top−Bottom)/(1+10^((log EC50−x)*HillSlope)). To evaluate the anti-tumor activity of the compounds, the growth inhibitory effect of the compound was measured in various human cancer cell lines after 72 hour incubation. In the assays, the viability of the Molt-4 cells was greater than 85% during the initial cell plating. All the cell plates met the criteria that the coefficient of variation (CV)<10%. Observed IC50 values are summarized below, along with the observed IC50 value for reference compound 6-chloro-3-(2,4-dichloro-5-methoxyphenyl)-2-mercapto-7-methoxyquinazolin-4(3H)-one.
For orientation: Cellular ATP, detected with luciferase, serves as a proxy for viable cell number.
With `COc1cc(-n2c(S)nc3cc(C4CC4)c(Cl)cc3c2=O)c(Cl)cc1Cl` [Compound 11, 6-Chloro-7-cyclopropyl-3-(2,4-dichloro-5-methoxyphenyl)-2-mercaptoquinazolin-4(3H)-one], the 50% inhibitory concentration (IC50) lay in the range of 3000 to 30000 nM.

Consider `COc1cc(-n2c(S)nc3cc(OC)c(OC)cc3c2=O)c(Cl)cc1Cl` [Compound 6, 3-(2,4-dichloro-5-methoxyphenyl)-2-mercapto-6,7-dimethoxyquinazolin-4(3H)-one], for which the IC50 was less than 3000 nM.

`COc1cc2nc(S)n(-c3cc(F)c(Cl)cc3Cl)c(=O)c2cc1Cl` [Compound 4, 6-Chloro-3-(2,4-dichloro-5-fluorophenyl)-2-mercapto-7-methoxyquinazolin-4(3H)-one]: the IC50 lay within 3000 to 30000 nM.

Compound `COc1cc(-n2c(S)nc3cc(OC)c(C4CC4)cc3c2=O)c(Cl)cc1Cl` [Compound 9, 6-Cyclopropyl-3-(2,4-dichloro-5-methoxyphenyl)-2-mercapto-7-methoxyquinazolin-4(3H)-one] yielded an IC50 of less than 3000 nM.

As to `C=Cc1c(OC)c(Cl)cc2c(=O)n(-c3cc(OC)c(Cl)cc3Cl)c(S)nc12` [Compound 12, 6-Chloro-3-(2,4-dichloro-5-methoxyphenyl)-2-mercapto-7-methoxy-8-vinylquinazolin-4(3H)-one], the 50% inhibitory concentration (IC50) is more than 30000 nM.

`Cc1cc(-n2c(S)nc3ccc(Cl)cc3c2=O)c(Cl)cc1Cl` [Compound 10, 6-chloro-3-(2,4-Dichloro-5-methylphenyl)-2-mercaptoquinazolin-4(3H)-one] yielded an IC50 of 3000 to 30000 nM.

With `COc1cc(-n2c(S)nc3c(C4CC4)c(OC)c(Cl)cc3c2=O)c(Cl)cc1Cl` [Compound 13, 6-Chloro-8-cyclopropyl-3-(2,4-dichloro-5-methoxyphenyl)-2-mercapto-7-methoxyquinazolin-4(3H)-one], the IC50 was in the range of 3000 to 30000 nM.

The compound `COc1cc(-n2c(S)nc3cc(OC)c(Cl)cc3c2=O)c(OC)cc1Cl` [Compound 3, 6-Chloro-3-(4-chloro-2,5-dimethoxyphenyl)-2-mercapto-7-methoxyquinazolin-4(3H)-one] showed an IC50 of 3000 to 30000 nM.

Compound `COc1cc2nc(S)n(-c3cc(OC)c(OC)cc3Cl)c(=O)c2cc1Cl` [Compound 1, 6-Chloro-3-(2-chloro-4,5-dimethoxyphenyl)-2-mercapto-7-methoxyquinazolin-4(3H)-one] came in with an IC50 of more than 30000 nM.

`COc1cc2nc(S)n(-c3cc(OC)c(Cl)cc3Cl)c(=O)c2cc1N` [Compound 8, 6-Amino-3-(2,4-dichloro-5-methoxyphenyl)-2-mercapto-7-methoxyquinazolin-4(3H)-one] came in with an IC50 of less than 3000 nM.

In the case of `COc1cc2nc(S)n(-c3cc(OC)c(Cl)cc3Cl)c(=O)c2cc1O` [Compound 7, 3-(2,4-Dichloro-5-methoxyphenyl)-6-hydroxy-2-mercapto-7-methoxyquinazolin-4(3H)-one], the concentration for half-maximal inhibition (IC50) was less than 3000 nM.

`COc1cc(-n2c(S)nc3cc(OC)c(Cl)cc3c2=O)c(Cl)cc1Cl` [Ref. 1, 6-chloro-3-(2,4-dichloro-5-methoxyphenyl)-2-mercapto-7-methoxyquinazolin-4(3H)-one, reference compound] showed an IC50 of 3000 to 30000 nM.

In the case of `COc1cc(-n2c(S)nc3cc(OC)c(Cl)cc3c2=O)c(Cl)cc1F` [Compound 2, 6-Chloro-3-(2-chloro-4-fluoro-5-methoxyphenyl)-2-mercapto-7-methoxyquinazolin-4(3H)-one], the IC50 lay within 3000 to 30000 nM.

`COc1ccc2c(=O)n(-c3cc(OC)c(Cl)cc3Cl)c(S)nc2c1` [Compound 5, 3-(2,4-dichloro-5-methoxyphenyl)-2-mercapto-7-methoxyquinazolin-4(3H)-one] came in with a concentration for half-maximal inhibition (IC50) of 3000 to 30000 nM.

These data come from US12454514B2, “Quinazolinone compounds” (Cerepeut, Inc., priority 2019, dated 2025).
